A short description of the series: solubility in organic solvents. Type of series: physicochemical.

Turning to `O=C(OCC1OC(OC(=O)c2cc(O)c(O)c(OC(=O)c3cc(O)c(O)c(O)c3)c2)C(OC(=O)c2cc(O)c(O)c(OC(=O)c3cc(O)c(O)c(O)c3)c2)C(OC(=O)c2cc(O)c(O)c(OC(=O)c3cc(O)c(O)c(O)c3)c2)C1OC(=O)c1cc(O)c(O)c(OC(=O)c2cc(O)c(O)c(O)c2)c1)c1cc(O)c(O)c(OC(=O)c2cc(O)c(O)c(O)c2)c1` (centres unmarked) [tannic acid, Tannic acid], the “solubility in low-polarity solvents” value (low-polarity solvents, such as ethyl acetate) was “insoluble”. In addition, the “solubility in polar solvents” value (polar solvents, such as NPM or MEK) is on record as “soluble”.

The values are drawn from patent publication US20240315244A1, “ANTIVIRAL COATING AGENT, ANTIVIRAL AGENT, LAMINATED BODY, AND PACKAGE OR CONTAINER” (National Institute for Materials Science, priority 2021, published 2024).
